Laboratory results reported in patent publication US10183022B2, “Pharmaceutical composition for treating ulcerative colitis” (EA Pharma Co., Ltd., priority 2014, dated 2019).

Key:
Assay type in all cases: in vivo, human
[1] = system: ulcerative colitis patients in an active stage; assay: Clinical study, 960 mg orally 3 times a day for 8 weeks: subscore for physician's global assessment of Mayo score
Method: (§1) The compound of Example 1 or the compound of Comparative Example 1 was orally administered after meals 3 times a day. The number of the given tablets was 8 per administration (i.e., the amount of the compound (1) of Example 1 administered was 960 mg per administration). The administration period was 8 weeks. The compounds were administered until the timing after the breakfast on the day before the assessment day at Week 8.
(4) Physician's Global Assessment [Investigation Timings: Weeks 0, 2, 4, and 8 (or Discontinuation Time)]
The investigators or sub-investigators conducted a medical interview with the subjects (for abdominal discomfort, systemic state, investigator's finding, subject's impression, and so forth), and investigated the state on each assessment day.
The investigators or sub-investigators scored the physician's global assessment according to the following criteria with reference to the other three assessment criteria (stool frequency, bloody stool, and mucosal finding), as well as the abdominal discomfort, systemic state, investigator's finding, subject's impression, and so forth. Note that, on the days of the assessment performed without an endoscope, no mucosal finding was considered in scoring the physician's global assessment.

[2] = system: ulcerative colitis patients in an active stage; assay: Clinical study, 960 mg orally 3 times a day for 8 weeks: subscore for bloody stool of Mayo score, bloody-stool disappearance rate; design: Cases by subscore for bloody stool, figure in parentheses: unit not given here
Method: as §1
(2) Bloody Stool [Investigation Timings: Weeks 0, 2, 4, and 8 (or Discontinuation Time)]
Based on the contents described in the symptom-recording diaries, the investigators or sub-investigators investigated the states of bloody stool in 3 days immediately before each assessment day. Note that when the endoscopic examination on the large intestine was conducted, the investigation days were set to be the closest three days excluding the day of the endoscopic examination on the large intestine, the following day, and if a pre-treatment was performed for the endoscopic examination on the large intestine, the pre-treatment day.
The bloody stool state on the most severe day among the investigated three days was scored according to the following criteria.

[3] = system: ulcerative colitis patients in an active stage; assay: Clinical study, 960 mg orally 3 times a day for 8 weeks: adverse events
Method: as §1

COC(=O)[C@H](Cc1ccc(-n2c(=O)c3cc(N(C)C)ccc3n(C)c2=O)cc1)NC(=O)c1c(Cl)cccc1Cl [Example 1, methyl(2S)-2-(2,6-dichlorobenzamide)-3-{4-[6-(dimethylamino)-1-methyl-2,4-dioxo-1,4-dihydroquinazolin-3(2H)-yl]phenyl}propanoate]
Number of cases, cross tabulation of subscore for physician's global assessment ([1]; Week 2 score 0, Week 0 score 0): 0 | Number of cases, cross tabulation of subscore for physician's global assessment ([1]; Week 2 score 0, Week 0 score 1): 0 | Number of cases, cross tabulation of subscore for physician's global assessment ([1]; Week 2 score 0, Week 0 score 2): 3 | Number of cases, cross tabulation of subscore for physician's global assessment ([1]; Week 2 score 0, Week 0 score 3): 0 | Number of cases, cross tabulation of subscore for physician's global assessment ([1]; Week 2 score 1, Week 0 score 0): 0 | Number of cases, cross tabulation of subscore for physician's global assessment ([1]; Week 2 score 1, Week 0 score 1): 3 | Number of cases, cross tabulation of subscore for physician's global assessment ([1]; Week 2 score 1, Week 0 score 2): 19 | Number of cases, cross tabulation of subscore for physician's global assessment ([1]; Week 2 score 1, Week 0 score 3): 0 | Number of cases, cross tabulation of subscore for physician's global assessment ([1]; Week 2 score 2, Week 0 score 0): 0 | Number of cases, cross tabulation of subscore for physician's global assessment ([1]; Week 2 score 2, Week 0 score 1): 0 | Number of cases, cross tabulation of subscore for physician's global assessment ([1]; Week 2 score 2, Week 0 score 2): 26 | Number of cases, cross tabulation of subscore for physician's global assessment ([1]; Week 2 score 2, Week 0 score 3): 0 | Number of cases, cross tabulation of subscore for physician's global assessment ([1]; Week 2 score 3, Week 0 score 0): 0 | Number of cases, cross tabulation of subscore for physician's global assessment ([1]; Week 2 score 3, Week 0 score 1): 0 | Number of cases, cross tabulation of subscore for physician's global assessment ([1]; Week 2 score 3, Week 0 score 2): 0 | Number of cases, cross tabulation of subscore for physician's global assessment ([1]; Week 2 score 3, Week 0 score 3): 0 | Number of cases, cross tabulation of subscore for physician's global assessment ([1]; Week 4 score 0, Week 0 score 0): 0 | Number of cases, cross tabulation of subscore for physician's global assessment ([1]; Week 4 score 0, Week 0 score 1): 0 | Number of cases, cross tabulation of subscore for physician's global assessment ([1]; Week 4 score 0, Week 0 score 2): 7 | Number of cases, cross tabulation of subscore for physician's global assessment ([1]; Week 4 score 0, Week 0 score 3): 0 | Number of cases, cross tabulation of subscore for physician's global assessment ([1]; Week 4 score 1, Week 0 score 0): 0 | Number of cases, cross tabulation of subscore for physician's global assessment ([1]; Week 4 score 1, Week 0 score 1): 3 | Number of cases, cross tabulation of subscore for physician's global assessment ([1]; Week 4 score 1, Week 0 score 2): 23 | Number of cases, cross tabulation of subscore for physician's global assessment ([1]; Week 4 score 1, Week 0 score 3): 0 | Number of cases, cross tabulation of subscore for physician's global assessment ([1]; Week 4 score 2, Week 0 score 0): 0 | Number of cases, cross tabulation of subscore for physician's global assessment ([1]; Week 4 score 2, Week 0 score 1): 0 | Number of cases, cross tabulation of subscore for physician's global assessment ([1]; Week 4 score 2, Week 0 score 2): 18 | Number of cases, cross tabulation of subscore for physician's global assessment ([1]; Week 4 score 2, Week 0 score 3): 0 | Number of cases, cross tabulation of subscore for physician's global assessment ([1]; Week 4 score 3, Week 0 score 0): 0 | Number of cases, cross tabulation of subscore for physician's global assessment ([1]; Week 4 score 3, Week 0 score 1): 0 | Number of cases, cross tabulation of subscore for physician's global assessment ([1]; Week 4 score 3, Week 0 score 2): 0 | Number of cases, cross tabulation of subscore for physician's global assessment ([1]; Week 4 score 3, Week 0 score 3): 0 | Number of cases, cross tabulation of subscore for physician's global assessment ([1]; Week 8 score 0, Week 0 score 0): 0 | Number of cases, cross tabulation of subscore for physician's global assessment ([1]; Week 8 score 0, Week 0 score 1): 1 | Number of cases, cross tabulation of subscore for physician's global assessment ([1]; Week 8 score 0, Week 0 score 2): 6 | Number of cases, cross tabulation of subscore for physician's global assessment ([1]; Week 8 score 0, Week 0 score 3): 0 | Number of cases, cross tabulation of subscore for physician's global assessment ([1]; Week 8 score 1, Week 0 score 0): 0 | Number of cases, cross tabulation of subscore for physician's global assessment ([1]; Week 8 score 1, Week 0 score 1): 2 | Number of cases, cross tabulation of subscore for physician's global assessment ([1]; Week 8 score 1, Week 0 score 2): 28 | Number of cases, cross tabulation of subscore for physician's global assessment ([1]; Week 8 score 1, Week 0 score 3): 0 | Number of cases, cross tabulation of subscore for physician's global assessment ([1]; Week 8 score 2, Week 0 score 0): 0 | Number of cases, cross tabulation of subscore for physician's global assessment ([1]; Week 8 score 2, Week 0 score 1): 0 | Number of cases, cross tabulation of subscore for physician's global assessment ([1]; Week 8 score 2, Week 0 score 2): 14 | Number of cases, cross tabulation of subscore for physician's global assessment ([1]; Week 8 score 2, Week 0 score 3): 0 | Number of cases, cross tabulation of subscore for physician's global assessment ([1]; Week 8 score 3, Week 0 score 0): 0 | Number of cases, cross tabulation of subscore for physician's global assessment ([1]; Week 8 score 3, Week 0 score 1): 0 | Number of cases, cross tabulation of subscore for physician's global assessment ([1]; Week 8 score 3, Week 0 score 2): 0 | Number of cases, cross tabulation of subscore for physician's global assessment ([1]; Week 8 score 3, Week 0 score 3): 0 | Cases by subscore for bloody stool, figure in parentheses ([2]; Week 0, score 1): 45.1 | Number of cases by subscore for bloody stool ([2]; Week 0, score 1): 23 | Cases by subscore for bloody stool, figure in parentheses ([2]; Week 0, score 2): 47.1 | Number of cases by subscore for bloody stool ([2]; Week 0, score 2): 24 | Cases by subscore for bloody stool, figure in parentheses ([2]; Week 0, score 3): 7.8 | Number of cases by subscore for bloody stool ([2]; Week 0, score 3): 4 | Cases by subscore for bloody stool, figure in parentheses ([2]; Week 2, score 0): 9.8 | Number of cases by subscore for bloody stool ([2]; Week 2, score 0): 5 | Cases by subscore for bloody stool, figure in parentheses ([2]; Week 2, score 1): 54.9 | Number of cases by subscore for bloody stool ([2]; Week 2, score 1): 28 | Cases by subscore for bloody stool, figure in parentheses ([2]; Week 2, score 2): 33.3 | Number of cases by subscore for bloody stool ([2]; Week 2, score 2): 17 | Cases by subscore for bloody stool, figure in parentheses ([2]; Week 2, score 3): 2.0 | Number of cases by subscore for bloody stool ([2]; Week 2, score 3): 1 | Number of cases, cross tabulation of subscore for bloody stool ([2]; Week 2 score 0, Week 0 score 1): 2 | Number of cases, cross tabulation of subscore for bloody stool ([2]; Week 2 score 0, Week 0 score 2): 2 | Number of cases, cross tabulation of subscore for bloody stool ([2]; Week 2 score 0, Week 0 score 3): 1 | Number of cases, cross tabulation of subscore for bloody stool ([2]; Week 2 score 1, Week 0 score 1): 18 | Number of cases, cross tabulation of subscore for bloody stool ([2]; Week 2 score 1, Week 0 score 2): 8 | Number of cases, cross tabulation of subscore for bloody stool ([2]; Week 2 score 1, Week 0 score 3): 2 | Number of cases, cross tabulation of subscore for bloody stool ([2]; Week 2 score 2, Week 0 score 1): 3 | Number of cases, cross tabulation of subscore for bloody stool ([2]; Week 2 score 2, Week 0 score 2): 14 | Number of cases, cross tabulation of subscore for bloody stool ([2]; Week 2 score 2, Week 0 score 3): 0 | Number of cases, cross tabulation of subscore for bloody stool ([2]; Week 2 score 3, Week 0 score 1): 0 | Number of cases, cross tabulation of subscore for bloody stool ([2]; Week 2 score 3, Week 0 score 2): 0 | Number of cases, cross tabulation of subscore for bloody stool ([2]; Week 2 score 3, Week 0 score 3): 1 | Cases by subscore for bloody stool, figure in parentheses ([2]; Week 4, score 0): 35.3 | Number of cases by subscore for bloody stool ([2]; Week 4, score 0): 18 | Cases by subscore for bloody stool, figure in parentheses ([2]; Week 4, score 1): 43.1 | Number of cases by subscore for bloody stool ([2]; Week 4, score 1): 22 | Cases by subscore for bloody stool, figure in parentheses ([2]; Week 4, score 2): 19.6 | Number of cases by subscore for bloody stool ([2]; Week 4, score 2): 10 | Cases by subscore for bloody stool, figure in parentheses ([2]; Week 4, score 3): 2.0 | Number of cases by subscore for bloody stool ([2]; Week 4, score 3): 1 | Number of cases, cross tabulation of subscore for bloody stool ([2]; Week 4 score 0, Week 0 score 1): 9 | Number of cases, cross tabulation of subscore for bloody stool ([2]; Week 4 score 0, Week 0 score 2): 8 | Number of cases, cross tabulation of subscore for bloody stool ([2]; Week 4 score 0, Week 0 score 3): 1 | Number of cases, cross tabulation of subscore for bloody stool ([2]; Week 4 score 1, Week 0 score 1): 12 | Number of cases, cross tabulation of subscore for bloody stool ([2]; Week 4 score 1, Week 0 score 2): 9 | Number of cases, cross tabulation of subscore for bloody stool ([2]; Week 4 score 1, Week 0 score 3): 1 | Number of cases, cross tabulation of subscore for bloody stool ([2]; Week 4 score 2, Week 0 score 1): 2 | Number of cases, cross tabulation of subscore for bloody stool ([2]; Week 4 score 2, Week 0 score 2): 7 | Number of cases, cross tabulation of subscore for bloody stool ([2]; Week 4 score 2, Week 0 score 3): 1 | Number of cases, cross tabulation of subscore for bloody stool ([2]; Week 4 score 3, Week 0 score 1): 0 | Number of cases, cross tabulation of subscore for bloody stool ([2]; Week 4 score 3, Week 0 score 2): 0 | Number of cases, cross tabulation of subscore for bloody stool ([2]; Week 4 score 3, Week 0 score 3): 1 | Difference in bloody-stool disappearance rates, Example 1 vs Comparative Example 1 (placebo) ([2]; Week 8): 29.4% | Bloody-stool disappearing cases ([2]; Week 8, 51 cases analyzed): 25 | Bloody-stool disappearance rate ([2]; Week 8, all subjects): 49.0% | Cases by subscore for bloody stool, figure in parentheses ([2]; Week 8, score 0): 49.0 | Number of cases by subscore for bloody stool ([2]; Week 8, score 0): 25 | Cases by subscore for bloody stool, figure in parentheses ([2]; Week 8, score 1): 37.3 | Number of cases by subscore for bloody stool ([2]; Week 8, score 1): 19 | Cases by subscore for bloody stool, figure in parentheses ([2]; Week 8, score 2): 11.8 | Number of cases by subscore for bloody stool ([2]; Week 8, score 2): 6 | Cases by subscore for bloody stool, figure in parentheses ([2]; Week 8, score 3): 2.0 | Number of cases by subscore for bloody stool ([2]; Week 8, score 3): 1 | Number of cases, cross tabulation of subscore for bloody stool ([2]; Week 8 score 0, Week 0 score 1): 13 | Number of cases, cross tabulation of subscore for bloody stool ([2]; Week 8 score 0, Week 0 score 2): 9 | Number of cases, cross tabulation of subscore for bloody stool ([2]; Week 8 score 0, Week 0 score 3): 3 | Number of cases, cross tabulation of subscore for bloody stool ([2]; Week 8 score 1, Week 0 score 1): 8 | Number of cases, cross tabulation of subscore for bloody stool ([2]; Week 8 score 1, Week 0 score 2): 11 | Number of cases, cross tabulation of subscore for bloody stool ([2]; Week 8 score 1, Week 0 score 3): 0 | Number of cases, cross tabulation of subscore for bloody stool ([2]; Week 8 score 2, Week 0 score 1): 2 | Number of cases, cross tabulation of subscore for bloody stool ([2]; Week 8 score 2, Week 0 score 2): 4 | Number of cases, cross tabulation of subscore for bloody stool ([2]; Week 8 score 2, Week 0 score 3): 0 | Number of cases, cross tabulation of subscore for bloody stool ([2]; Week 8 score 3, Week 0 score 1): 0 | Number of cases, cross tabulation of subscore for bloody stool ([2]; Week 8 score 3, Week 0 score 2): 0 | Number of cases, cross tabulation of subscore for bloody stool ([2]; Week 8 score 3, Week 0 score 3): 1 | Safety (adverse event analysis) ([3]; 960 mg orally 3 times a day for 8 weeks): no problem in safety | Severe adverse events ([3]; 8-week study period): no severe adverse event occurred | Incidence rate of moderate adverse events ([3]; 8-week study period (2/51 cases)): 3.9%
